Test results reported in patent US11904054B2, “Compositions and methods for delivering pharmaceutical agents” (Arizona Board of Regents on Behalf of the University of …, priority 2018, dated 2024).

Legend:
[1] = Residual water content by Karl Fischer titration; assay type: physicochemical; settings: Karl Fisher Titration, n = 3, Mean ± SD
Excerpt: (§1) Using conditions similar to previously reported (Li, X., et al., J Aerosol Med Pulm Drug Deliv, 2014. 27(2): p. 81-93; Li, X., et al., European Journal of Pharmaceutical Sciences, 2014. 52: p. 191-205; Meenach, S. A., et al., AAPS PharmSciTech, 2014. 15(6): p. 1574-87; Li, X., et al., Pharm Sci, 2014. 103(9): p. 2937-49; Meenach, S. A., et al., European Journal of Pharmaceutical Sciences, 2013. 49(4): p. 699-797; Muralidharan, P., et al., The Royal Society of Chemistry(RSC): Molecular Systems Design & Engineering, 2016: p. 1-18), the residual water content of all SD and Co-SD powders were quantified analytically by Karl Fischer titration (KFT) coulometrically using a TitroLine 7500 trace titrator (SI Analytics, Germany).
Approximately 2-10 mg of powder was added to the titration cell containing Hydranal® Coulomat AD reagent. The residual water content was then calculated.

[2] = Particle sizing and size distribution by image analysis of SEM micrographs; assay type: physicochemical
Excerpt: as §1, with “visual imaging and analysis” for “the residual water content”, “particle size, morphology,” for “all SD”, “surface morphology” for “Co-SD powders”, “achieved” for “quantified analytically”, “scanning electron microscopy (SEM)” for “Karl Fischer titration (KFT) coulometrically”, “FEI Inspect S microscope (FBI, Brno, Czech republic). […]” for “TitroLine 7500 trace titrator (SI Analytics, Germany).”
The mean size, standard deviation, and size range were determined using SigmaScan™ Pro 5.0.0 (Systat, Inc., San Jose, Calif.) based on their scanning electron micrographs using a similar procedure that we have previously reported (Muralidharan et al., supra; Meenach, S. A., et al., AAPS PharmSciTech, 2014. 15(6): p. 1574-87). Representative micrographs for each particle sample at 3000× magnification was analyzed by measuring the diameter of at least 100 particles per sample.

MCT rats = test: PH development in MCT rats; assay type: in vivo

| Compound | Water content [1] | Particle size, Range ([2]; n = 100) | Particle size, Mean ([2]; n = 100, Mean ± SD) | PH development (MCT rats) |
| --- | --- | --- | --- | --- |
| C[N+](C)(C)C[C@H](O)CC(=O)[O-] [Raw L-Car, L-Carnitine] | 2.68 ± 0.8 % (w/w) | 298.38-1810.57 μm | 659.05 ± 235.82 μm | attenuates PH development |
| OC[C@@H](O)[C@@H](O)[C@H](O)[C@H](O)CO [Raw Man, D-mannitol] | 0.3 ± 0.13 % (w/w) | – | – | – |
